According to ChEMBL document CHEMBL4419164, “Methods and compositions for inhibiting cnksr1” (2018):
Activity calls are given as the source filed them. The calls are words filed in the database; no cut-off is given here.

Assays:
Pleckstrin = target: T1, Pleckstrin (Homo sapiens, UniProt P08567); test: Binding affinity to PLEK PH-domain (unknown origin) at 0.01 to 50 uM by SPR spectroscopy
T1 sequence (P08567 whole entry): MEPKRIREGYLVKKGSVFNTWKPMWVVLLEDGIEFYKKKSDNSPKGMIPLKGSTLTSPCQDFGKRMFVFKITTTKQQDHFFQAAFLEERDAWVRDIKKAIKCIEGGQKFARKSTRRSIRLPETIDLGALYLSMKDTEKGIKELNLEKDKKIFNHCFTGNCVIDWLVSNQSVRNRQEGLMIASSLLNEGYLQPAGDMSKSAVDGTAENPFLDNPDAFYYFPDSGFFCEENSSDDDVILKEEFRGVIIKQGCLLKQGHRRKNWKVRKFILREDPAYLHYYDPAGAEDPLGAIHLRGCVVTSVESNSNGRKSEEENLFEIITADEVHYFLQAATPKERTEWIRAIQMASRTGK

[1] = target: T2, Connector enhancer of kinase suppressor of ras 1 (Homo sapiens, UniProt Q969H4); test: Binding affinity to CNKSR1 PH-domain (unknown origin) by SPR spectroscopy
T2 sequence (Q969H4 whole entry): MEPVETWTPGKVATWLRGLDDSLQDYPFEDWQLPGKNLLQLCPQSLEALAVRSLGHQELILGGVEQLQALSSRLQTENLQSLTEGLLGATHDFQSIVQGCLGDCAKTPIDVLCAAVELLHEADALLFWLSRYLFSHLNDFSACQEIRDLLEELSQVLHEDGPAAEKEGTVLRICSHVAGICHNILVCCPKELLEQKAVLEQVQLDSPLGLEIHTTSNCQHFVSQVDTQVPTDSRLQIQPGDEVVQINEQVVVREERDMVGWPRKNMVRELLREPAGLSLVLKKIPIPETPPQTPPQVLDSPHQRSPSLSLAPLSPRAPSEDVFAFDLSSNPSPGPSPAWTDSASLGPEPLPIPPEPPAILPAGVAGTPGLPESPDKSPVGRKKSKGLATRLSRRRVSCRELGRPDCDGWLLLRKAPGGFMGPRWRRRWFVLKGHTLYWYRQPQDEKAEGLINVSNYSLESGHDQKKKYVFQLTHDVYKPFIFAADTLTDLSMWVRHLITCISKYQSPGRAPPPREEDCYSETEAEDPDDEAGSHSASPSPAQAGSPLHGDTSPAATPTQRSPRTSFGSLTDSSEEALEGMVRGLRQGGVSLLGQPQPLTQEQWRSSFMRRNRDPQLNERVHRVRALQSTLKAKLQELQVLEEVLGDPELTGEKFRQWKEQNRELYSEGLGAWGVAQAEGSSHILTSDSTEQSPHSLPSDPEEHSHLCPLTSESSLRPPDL

HCC515 [2] = test: Growth inhibition of human HCC515 cells incubated for 3 days; assay type: functional, cell-based; settings: HCC515, 72 h
[3] = Growth inhibition of human […] cells incubated for 3 days; assay type: functional; settings: 72 h
NCI-H2122 [4] = test: Growth inhibition of human NCI-H2122 cells incubated for 3 days; assay type: functional, cell-based; settings: NCI-H2122, 72 h
[5] = target: RAC-alpha serine/threonine-protein kinase (Homo sapiens, UniProt P31749); test: Binding affinity to AKT PH-domain (unknown origin) at 0.01 to 50 uM by SPR spectroscopy
HCC95 = test: Growth inhibition of human HCC95 cells incubated for 3 days; assay type: functional, cell-based; settings: HCC95, 72 h
[6] = Terminal half life in iv dosed mouse; assay type: ADME, organism-based; settings: in vivo, read-out: beta t1/2
[7] = target: T3, Connector enhancer of kinase suppressor of ras 1 (Homo sapiens) (UniProt Q969H4); test: Inhibition of CNKSR1 (unknown origin) assessed as reduction in inhibition of KRas signaling effectors by measuring p-MAPK levels at 20 uM by cell based assay
T3 sequence (whole entry): T2 sequence (Q969H4 whole entry)

[8] = Half life in C57BL6 mouse at 250 mg/kg, po dosed via gavage as single administration; assay type: ADME, organism-based; settings: in vivo
[9] = target: T3, Connector enhancer of kinase suppressor of ras 1 (Homo sapiens); test: Inhibition of CNKSR1 (unknown origin) assessed as reduction in inhibition of KRas signaling effectors by measuring GTP-RalA levels at 20 uM by cell based assay
[10] = Cmax in C57BL6 mouse plasma at 250 mg/kg, po dosed via gavage as single administration; assay type: ADME, organism-based; set-up: dose 250 mg/kg, route oral
[11] = target: T3, Connector enhancer of kinase suppressor of ras 1 (Homo sapiens); test: Inhibition of CNKSR1 (unknown origin) assessed as reduction in inhibition of KRas signaling effectors by measuring p-AKT levels at 20 uM by cell based assay
[12] = target: Rho guanine nucleotide exchange factor TIAM1 (Homo sapiens) (UniProt Q13009); test: Binding affinity to TIAM1 PH-domain (unknown origin) at 0.01 to 50 uM by SPR spectroscopy
A549 [13] = test: Growth inhibition of human A549 cells relative to control; assay type: functional, cell-based
[14] = target: T4, 3-phosphoinositide-dependent protein kinase 1 (Homo sapiens) (UniProt O15530); test: Binding affinity to PDPK1 PH-domain (unknown origin) at 0.01 to 50 uM by SPR spectroscopy
T4 sequence (whole entry): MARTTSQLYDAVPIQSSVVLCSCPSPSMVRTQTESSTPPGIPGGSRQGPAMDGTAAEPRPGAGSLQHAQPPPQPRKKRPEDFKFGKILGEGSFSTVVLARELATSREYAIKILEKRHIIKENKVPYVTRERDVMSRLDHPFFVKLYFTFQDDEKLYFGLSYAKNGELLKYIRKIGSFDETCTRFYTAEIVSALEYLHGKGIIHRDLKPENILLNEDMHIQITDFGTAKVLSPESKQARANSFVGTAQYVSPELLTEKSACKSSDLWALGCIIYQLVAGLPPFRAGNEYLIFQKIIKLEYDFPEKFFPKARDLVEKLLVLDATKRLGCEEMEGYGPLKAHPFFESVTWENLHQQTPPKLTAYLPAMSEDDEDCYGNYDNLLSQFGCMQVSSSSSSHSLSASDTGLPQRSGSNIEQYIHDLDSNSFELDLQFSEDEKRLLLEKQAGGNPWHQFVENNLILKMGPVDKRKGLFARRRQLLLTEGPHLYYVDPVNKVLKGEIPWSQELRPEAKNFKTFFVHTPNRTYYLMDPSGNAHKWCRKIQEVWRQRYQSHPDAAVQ

NCI-H1373 = test: Growth inhibition of human NCI-H1373 cells relative to control; assay type: functional, cell-based
Homo sapiens [15] = organism: Homo sapiens; test: Selectivity index, ratio of binding affinity to AKT PH-domain (unknown origin) by SPR spectroscopy to binding affinity to CNKSR1 PH-domain (unknown origin) by SPR spectroscopy
NCI-H2122 [16] = test: Growth inhibition of human NCI-H2122 cells relative to control; assay type: functional, cell-based
Homo sapiens [17] = organism: Homo sapiens; test: Selectivity index, ratio of binding affinity to PDPK1 PH-domain (unknown origin) by SPR spectroscopy to binding affinity to CNKSR1 PH-domain (unknown origin) by SPR spectroscopy
HCC515 [18] = test: Growth inhibition of human HCC515 cells relative to control; assay type: functional, cell-based
Homo sapiens [19] = organism: Homo sapiens; test: Selectivity index, ratio of binding affinity to TIAM1 PH-domain (unknown origin) by SPR spectroscopy to binding affinity to CNKSR1 PH-domain (unknown origin) by SPR spectroscopy
A549 [20] = test: Antitumor activity against human A549 cells xenografted in nu/nu mouse assessed as reduction in tumor volume at 200 mg/kg, ip dosed daily for 8 days co-treated with 75 mg/kg, po erlotinib; assay type: functional, organism-based
[21] = target: T3, Connector enhancer of kinase suppressor of ras 1 (Homo sapiens); test: Inhibition of GFP-tagged CNKSR1 (unknown origin) expressed in HEK293T cells assessed as blocking of membrane colocalization of CNKSR1 and mutant-KRas at plasma membrane at 50 uM incubated for 4 hrs by confocal imaging assay; assay type: cell-based
[22] = target: T3, Connector enhancer of kinase suppressor of ras 1 (Homo sapiens); test: Inhibition of GFP-tagged CNKSR1 (unknown origin) expressed in HEK293T cells assessed as reduction in total mutant-KRas protein at 50 uM incubated for 4 hrs by confocal imaging assay; assay type: cell-based
A549 [23] = test: Antitumor activity against human A549 cells xenografted in nu/nu mouse assessed as reduction in tumor volume at 200 mg/kg, ip dosed daily for 8 days; assay type: functional, organism-based
[24] = target: T3, Connector enhancer of kinase suppressor of ras 1 (Homo sapiens); test: Inhibition of GFP-tagged CNKSR1 (unknown origin) expressed in HEK293T cells assessed as inhibition of direct binding of CNKSR1 to mut-KRAS at 50 uM incubated for 4 hrs by fluorescence lifetime imaging microscopy; assay type: cell-based

Sequence of RAC-alpha serine/threonine-protein kinase (P31749 whole entry): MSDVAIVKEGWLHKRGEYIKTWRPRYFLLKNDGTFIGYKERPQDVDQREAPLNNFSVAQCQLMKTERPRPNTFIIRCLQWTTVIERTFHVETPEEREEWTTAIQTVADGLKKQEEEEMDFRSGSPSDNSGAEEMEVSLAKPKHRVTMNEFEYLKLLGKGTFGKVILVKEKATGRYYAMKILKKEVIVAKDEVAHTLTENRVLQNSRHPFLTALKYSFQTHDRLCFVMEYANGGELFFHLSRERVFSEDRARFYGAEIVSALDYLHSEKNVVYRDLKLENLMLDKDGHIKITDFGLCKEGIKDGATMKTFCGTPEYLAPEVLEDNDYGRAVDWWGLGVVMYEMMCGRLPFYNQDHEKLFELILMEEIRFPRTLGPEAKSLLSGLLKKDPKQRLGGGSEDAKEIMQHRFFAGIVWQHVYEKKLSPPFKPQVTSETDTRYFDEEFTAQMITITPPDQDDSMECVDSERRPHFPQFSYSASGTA
Sequence of Rho guanine nucleotide exchange factor TIAM1 (Homo sapiens) (Q13009 whole entry): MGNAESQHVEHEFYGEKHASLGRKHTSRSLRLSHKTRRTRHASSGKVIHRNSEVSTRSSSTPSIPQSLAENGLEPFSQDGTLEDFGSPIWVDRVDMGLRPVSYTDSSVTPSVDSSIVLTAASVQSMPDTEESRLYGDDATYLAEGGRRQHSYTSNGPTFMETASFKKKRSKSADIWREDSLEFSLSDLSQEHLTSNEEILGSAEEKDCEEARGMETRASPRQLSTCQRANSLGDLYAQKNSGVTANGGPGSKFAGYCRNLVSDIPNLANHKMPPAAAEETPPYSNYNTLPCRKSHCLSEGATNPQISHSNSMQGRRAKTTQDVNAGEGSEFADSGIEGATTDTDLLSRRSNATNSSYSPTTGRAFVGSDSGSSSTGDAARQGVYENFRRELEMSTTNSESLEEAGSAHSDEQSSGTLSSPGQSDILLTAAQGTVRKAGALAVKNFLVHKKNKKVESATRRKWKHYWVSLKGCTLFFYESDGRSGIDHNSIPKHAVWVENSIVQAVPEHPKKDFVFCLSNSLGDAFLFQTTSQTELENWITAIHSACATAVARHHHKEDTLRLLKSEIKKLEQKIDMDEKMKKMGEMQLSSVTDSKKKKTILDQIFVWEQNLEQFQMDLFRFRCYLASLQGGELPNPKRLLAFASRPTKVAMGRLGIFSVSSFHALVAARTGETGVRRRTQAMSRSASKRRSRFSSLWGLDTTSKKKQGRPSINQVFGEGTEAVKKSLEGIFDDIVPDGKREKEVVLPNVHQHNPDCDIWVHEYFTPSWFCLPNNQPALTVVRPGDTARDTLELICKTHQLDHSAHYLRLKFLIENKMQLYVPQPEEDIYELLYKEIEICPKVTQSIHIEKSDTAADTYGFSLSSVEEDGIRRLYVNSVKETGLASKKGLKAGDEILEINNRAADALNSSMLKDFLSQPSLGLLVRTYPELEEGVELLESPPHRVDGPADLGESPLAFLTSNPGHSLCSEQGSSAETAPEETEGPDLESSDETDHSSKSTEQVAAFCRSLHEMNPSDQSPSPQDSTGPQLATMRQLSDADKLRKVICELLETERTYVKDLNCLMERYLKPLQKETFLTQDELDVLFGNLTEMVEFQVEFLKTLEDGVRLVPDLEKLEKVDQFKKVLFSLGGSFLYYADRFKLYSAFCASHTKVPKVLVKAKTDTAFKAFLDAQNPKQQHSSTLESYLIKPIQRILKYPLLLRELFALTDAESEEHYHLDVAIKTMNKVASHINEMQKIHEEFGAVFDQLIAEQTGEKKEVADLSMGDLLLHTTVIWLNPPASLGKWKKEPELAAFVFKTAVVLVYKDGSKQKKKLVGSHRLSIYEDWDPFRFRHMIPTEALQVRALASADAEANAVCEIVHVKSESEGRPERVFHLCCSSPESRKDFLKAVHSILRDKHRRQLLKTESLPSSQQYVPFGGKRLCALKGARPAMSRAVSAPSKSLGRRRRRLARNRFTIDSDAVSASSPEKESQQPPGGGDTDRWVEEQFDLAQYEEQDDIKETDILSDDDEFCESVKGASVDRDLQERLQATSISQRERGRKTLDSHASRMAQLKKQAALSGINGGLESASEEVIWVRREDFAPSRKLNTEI

SMILES: CCOC(=O)/C=C/c1c(O)c(OC)cc(NS(=O)(=O)c2cccs2)c1SC
- Kd (Pleckstrin): 300 µM

SMILES: O=C(O)CSc1cc(NS(=O)(=O)c2cccs2)c2ccccc2c1O
- Kd ([1]; read-out: Kd): 3.64 µM
- IC50 (HCC515 [2]): 11 µM
- IC50 [3]: 7 µM
- IC50 (NCI-H2122 [4]): 34 µM
- Activity [5]: Active
- IC50 (HCC95): 13 µM

SMILES: O=C(O)CCc1ccc(-c2ccc(Br)cc2)n1CCC(=O)O
- Kd ([1]; read-out: Kd): 0.000196 µM
- Activity [5]: Active

SMILES: Cc1ccc(-c2csc(Cn3nc(CC=O)c4ccccc4c3=O)n2)cc1
- half-life [6]: 0.583 h

SMILES: Cc1ccc(-c2csc(Cn3nc(CC(=O)O)c4ccccc4c3=O)n2)cc1
- inhibition [7]: Active
- IC50 (HCC515 [2]): > 100 µM
- IC50 [3]: > 100 µM
- half-life [6]: 1.2 h
- half-life [8]: 13 h
- inhibition [9]: Active
- IC50 (NCI-H2122 [4]): > 100 µM
- IC50 (HCC95): > 100 µM
- Cmax [10]: 230 µM
- inhibition [11]: Active

SMILES: Cc1ccc(-c2csc(Cn3nc(CC(=O)N4CCN(C)CC4)c4ccccc4c3=O)n2)cc1
- half-life [6]: 5.45 h

SMILES: Cc1ccc(-c2csc(Cn3nc(CC4OCC(=O)O4)c4ccccc4c3=O)n2)cc1 (stereo not drawn)
- inhibition [7]: Active
- IC50 (HCC515 [2]): 34 µM
- IC50 [3]: 56 µM
- inhibition [9]: Active
- IC50 (NCI-H2122 [4]): > 100 µM
- IC50 (HCC95): 40 µM
- inhibition [11]: Active

SMILES: COc1c(/C=C/C(=O)O)cc(NS(=O)(=O)c2cccs2)c2c1OCO2
- Kd [1]: Not Active
- Kd [5]: Not Active

SMILES: Cc1ccc(-c2nc(SCC(=O)O)c3c(=O)n(C)c(=O)n(C)c3n2)cc1
- Kd ([1]; read-out: Kd): 1.01 µM
- Kd ([5]; read-out: Kd): 1.28 µM

SMILES: Cc1ccc(-c2csc(Cn3nc(Cc4nccs4)c4ccccc4c3=O)n2)cc1
- inhibition [7]: Active
- IC50 (HCC515 [2]): 28 µM
- IC50 [3]: 49 µM
- half-life [6]: 4.08 h
- inhibition [9]: Active
- IC50 (NCI-H2122 [4]): 26 µM
- IC50 (HCC95): 46 µM
- inhibition [11]: Active

SMILES: CC(=O)Nc1cccc(-n2nnc(SCC(=O)c3cc(-c4ccccc4)no3)n2)c1
- Activity [12]: inactive
- growth inhibition (GI) (A549 [13]): Active
- Activity [14]: inactive
- growth inhibition (GI) (NCI-H1373): Active
- Ratio (Homo sapiens [15]): 50 to 100
- growth inhibition (GI) (NCI-H2122 [16]): Active
- Ratio (Homo sapiens [17]): 50 to 100
- Activity [5]: inactive
- growth inhibition (GI) (HCC515 [18]): Active
- Ratio (Homo sapiens [19]): 50 to 100

SMILES: COc1ccc(OC)c(-c2cc(C(=O)O)c3nc(C)[nH]c3n2)c1
- Activity [5]: Active

SMILES: Cc1c(Cl)ccc2c(C(=O)O)cc(-c3cccnc3)nc12
- Activity [5]: Active

SMILES: Cc1ccc(-c2csc(Cn3nc(CC4OCCCO4)c4ccccc4c3=O)n2)cc1
- TGI (A549 [20]): Active
- inhibition [7]: Active
- IC50 (HCC515 [2]): 37 µM
- IC50 [3]: 38 µM
- half-life [6]: 4.33 h
- inhibition [9]: Active
- inhibition [21]: Active
- IC50 (NCI-H2122 [4]): > 100 µM
- inhibition [22]: Active
- IC50 (HCC95): 45 µM
- TGI (A549 [23]): Active
- inhibition [24]: Active
- inhibition [11]: Active

SMILES: O=C(O)c1ccc2c(c1)C1C=CCC1C(C(=O)O)N2 (stereo not drawn)
- Kd ([1]; read-out: Kd): 5.34 µM
- Kd ([5]; read-out: Kd): 0.000474 µM

SMILES: CCOC(=O)/C=C/c1cc(NS(=O)(=O)c2cccs2)c2c(c1O)OCO2
- Kd (Pleckstrin): 261 µM

SMILES: Nc1cccc(-c2cc(C(=O)O)c3cc(Cl)ccc3n2)c1
- Activity [5]: Active

SMILES: CCNC(=O)Cc1nn(Cc2nc(-c3ccc(C)cc3)cs2)c(=O)c2ccccc12
- half-life [6]: 0.467 h
- TGI (A549 [23]): Active

SMILES: O=C(O)COc1cc(OCC(=O)O)c2c3c(c(=O)oc2c1)CCCC3
- Kd ([1]; read-out: Kd): 1.13 µM
- Activity [5]: Active
